Consider three compounds from publication PMC4128413 (Tetrahedron letters, 2014).

A short description of series [1]: Cytotoxicity. It is filed as cell-based. The note with it: rat.
The test system of series [2] is Leishmania donovani MHOM-ET-67/L82 strain. As to the kind of experiment: Antiprotozoal activity against L. donovani. To be noted: read-out: IC50 L. donovani. It is filed as cell-based.
Series [3] concerns schistosomiasis parasite. The note with it: cited from earlier work.

`COc1cc([C@@H]2c3cc4c(cc3[C@H](O)[C@H]3COC(=O)[C@H]23)OCO4)cc(OC)c1OC` [Podophyllotoxin]: the concentration for half-maximal inhibition (IC50) in series [1] came out at 0.0072 µM.
As for `CCCCCCCCCCCCCCCCOP(=O)([O-])OCC[N+](C)(C)C` [Miltefosine], the half-inhibitory concentration (IC50) in series [2] was 0.34 µM.
As for `O=C(C1CCC(O)CC1)N1CC(=O)N2CCc3ccccc3C2C1` (stereo not drawn) [Compound 2], the “antischistosomal effectiveness relative to praziquantel (1) (in words)” value in series [3] is “equal to or considerably less effective than the parent drug”.

By IC50 is commonly meant the concentration that inhibits the measured activity by half.
